The text below walks through data of patent US10538554B2, “Peptides and uses therefor as antiviral agents” (priority 2015, dated 2020).

Bridge positions count the residues as written; N and C are the ends. Square brackets hold non-standard residues; d marks the D form. Peptide text beside a SMILES is read from it.

One assay deals with H3N8 A/Miami/2/63. The conditions noted are these: A/Miami/2/63, 48 h, 500 μM.
The next assay relates to H3N2 A/HK/8/1968. The conditions noted are these: A/HK/8/1968, 48 h, 500 μM.
The subject of assay [1] is H1N1 A1/Malaysia/302/1954. As to conditions: A1/Malaysia/302/1954, 48 h, 500 μM.
The next assay deals with H1N1 A/PR/8/1934. As to conditions: A/PR/8/1934, 48 h, 1 μM.

With `C[C@H](O)[C@H]1NC(=O)[C@H](N)CSSC[C@H](C(=O)O)NC(=O)[C@@H](CC(N)=O)NC(=O)[C@@H](Cc2c[nH]c3ccccc23)NC(=O)[C@@H](Cc2ccccc2)NC(=O)[C@@H](CCCNC(=N)N)NC(=O)[C@@H](CO)NC(=O)[C@@H](CCCCN)NC1=O` [PSP 19, H-ctksrfwnc-OH] (H-[dC][dT][dK][dS][dR][dF][dW][dN][dC]-OH; disulfide 1-9), the “% inhibition H3N8” value in the assay on H3N8 A/Miami/2/63 amounted to 78.4%. For the same molecule, the “% inhibition H3N2” value in the assay on H3N2 A/HK/8/1968 amounted to 92.6%. In assay [1], the “% inhibition H1N1” value came to 28.8%.

For the molecule `C[C@H](O)[C@H]1NC(=O)[C@H](N)CSSC[C@H](C(=O)O)NC(=O)[C@@H](CC(N)=O)NC(=O)[C@@H](CCC(=O)O)NC(=O)[C@@H](Cc2ccccc2)NC(=O)[C@@H](CCCNC(=N)N)NC(=O)[C@@H](CO)NC(=O)[C@@H](CCCCN)NC1=O` [PSP 4, H-ctksrfenc-OH] (H-[dC][dT][dK][dS][dR][dF][dE][dN][dC]-OH; disulfide 1-9), in the assay on H3N8 A/Miami/2/63, the “% inhibition H3N8” value turned out to be 64%. Besides, the “% inhibition H3N2” value in the assay on H3N2 A/HK/8/1968 is recorded as 22.7%. For the same molecule, the “% inhibition H1N1” value in assay [1] worked out at 52.9%.

Take `CC[C@@H](C)[C@H]1NC(=O)[C@@H](Cc2ccccc2)NC(=O)[C@@H]([C@H](C)O)NC(=O)[C@@H](Cc2ccccc2)NC(=O)[C@@H](Cc2c[nH]c3ccccc23)NC(=O)[C@@H](CC(=O)O)NC(=O)[C@H](NC(=O)[C@H](CCCCN)NC(=O)[C@H](CCCCN)NC(=O)[C@H](CCCNC(=N)N)NC(=O)[C@@H](N)CCCNC(=N)N)CSSC[C@H](C(=O)O)NC(=O)[C@@H](CC(N)=O)NC1=O` [PSP V A3, H-RRKKcdwftfinc-OH] (H-RRKK[dC][dD][dW][dF][dT][dF][dI][dN][dC]-OH; disulfide 5-13): in the assay on H1N1 A/PR/8/1934, the % Inhibition (in general, the change of the read-out against control, counted positive when it falls) is <20%.

As to `CC[C@@H](C)[C@H]1NC(=O)[C@@H](Cc2ccccc2)NC(=O)[C@@H]([C@H](C)O)NC(=O)[C@@H](Cc2ccccc2)NC(=O)[C@@H](Cc2c[nH]c3ccccc23)NC(=O)[C@@H](Cc2c[nH]cn2)NC(=O)[C@H](NC(=O)[C@H](CCCCN)NC(=O)[C@H](CCCCN)NC(=O)[C@H](CCCNC(=N)N)NC(=O)[C@@H](N)CCCNC(=N)N)CSSC[C@H](C(=O)O)NC(=O)[C@@H](CC(N)=O)NC1=O` [PSP V A7, H-RRKKchwitfinc-OH] (H-RRKK[dC][dH][dW][dF][dT][dF][dI][dN][dC]-OH; disulfide 5-13), the “% Inhibition” value in the assay with H1N1 A/PR/8/1934 turned out to be 67%.

For the molecule `CC[C@@H](C)[C@H]1NC(=O)[C@@H](Cc2ccccc2)NC(=O)[C@@H]([C@H](C)O)NC(=O)[C@@H](Cc2ccccc2)NC(=O)[C@@H](Cc2c[nH]c3ccccc23)NC(=O)[C@@H](Cc2ccccc2)NC(=O)[C@H](NC(=O)[C@H](CCCCN)NC(=O)[C@H](CCCCN)NC(=O)[C@H](CCCNC(=N)N)NC(=O)[C@@H](N)CCCNC(=N)N)CSSC[C@H](C(=O)O)NC(=O)[C@@H](CC(N)=O)NC1=O` [PSP V A5, H-RRKKcfWftfinc-OH] (H-RRKK[dC][dF][dW][dF][dT][dF][dI][dN][dC]-OH; disulfide 5-13), in the assay on H1N1 A/PR/8/1934, the “% Inhibition” value came out at 57%.

As for `C[C@H](O)[C@H]1NC(=O)[C@H](N)CSSC[C@H](C(=O)O)NC(=O)[C@@H](CC(N)=O)NC(=O)[C@@H](CS)NC(=O)[C@@H](Cc2ccccc2)NC(=O)[C@@H](CCCNC(=N)N)NC(=O)[C@@H](CO)NC(=O)[C@@H](CCCCN)NC1=O` [PSP 2, H-ctksrfcnc-OH] (H-[dC][dT][dK][dS][dR][dF][dC][dN][dC]-OH; disulfide 1-9), in the assay with H3N8 A/Miami/2/63, the “% inhibition H3N8” value is on record as 65%. Also, the “% inhibition H3N2” value in the assay with H3N2 A/HK/8/1968 came out at 18.5%. In assay [1], the “% inhibition H1N1” value is given as 67.6%.

As to `CC[C@@H](C)[C@H]1NC(=O)[C@@H](Cc2ccccc2)NC(=O)[C@@H]([C@H](C)O)NC(=O)[C@@H](Cc2ccccc2)NC(=O)[C@@H](Cc2c[nH]c3ccccc23)NC(=O)[C@@H](Cc2c[nH]c3ccccc23)NC(=O)[C@H](NC(=O)[C@H](CCCCN)NC(=O)[C@H](CCCCN)NC(=O)[C@H](CCCNC(=N)N)NC(=O)[C@@H](N)CCCNC(=N)N)CSSC[C@H](C(=O)O)NC(=O)[C@@H](Cc2ccc(O)cc2)NC1=O` [PSP VI A20, H-RRKKcwwftfiyc-OH] (H-RRKK[dC][dW][dW][dF][dT][dF][dI][dY][dC]-OH; disulfide 5-13), the “% Inhibition” value with H1N1 A/PR/8/1934 is given as 53%.

As for `CC[C@@H](C)[C@H]1NC(=O)[C@@H](Cc2ccccc2)NC(=O)[C@@H]([C@H](C)O)NC(=O)[C@@H](Cc2ccccc2)NC(=O)[C@@H](Cc2c[nH]c3ccccc23)NC(=O)[C@@H](CO)NC(=O)[C@H](NC(=O)[C@H](CCCCN)NC(=O)[C@H](CCCCN)NC(=O)[C@H](CCCNC(=N)N)NC(=O)[C@@H](N)CCCNC(=N)N)CSSC[C@H](C(=O)O)NC(=O)[C@@H](CC(N)=O)NC1=O` [PSP V A16, H-RRKKcswftfinc-OH] (H-RRKK[dC][dS][dW][dF][dT][dF][dI][dN][dC]-OH; disulfide 5-13), in the assay with H1N1 A/PR/8/1934, the “% Inhibition” value was found to be 54%.

`C[C@H](O)[C@H]1NC(=O)[C@H](N)CSSC[C@H](C(=O)O)NC(=O)[C@@H](CC(N)=O)NC(=O)[C@@H](Cc2ccccc2)NC(=O)[C@@H](Cc2ccccc2)NC(=O)[C@@H](CCCNC(=N)N)NC(=O)[C@@H](CO)NC(=O)[C@@H](CCCCN)NC1=O` [PSP 5, H-ctksrffnc-OH] (H-[dC][dT][dK][dS][dR][dF][dF][dN][dC]-OH; disulfide 1-9): in the assay on H3N8 A/Miami/2/63, the “% inhibition H3N8” value worked out at 77.3%. Also, the “% inhibition H3N2” value in the assay on H3N2 A/HK/8/1968 was determined as 45.5%. Further, the “% inhibition H1N1” value in assay [1] is recorded as 47.1%.

Turning to `CC[C@@H](C)[C@H]1NC(=O)[C@@H](Cc2ccccc2)NC(=O)[C@@H]([C@H](C)O)NC(=O)[C@@H](Cc2ccccc2)NC(=O)[C@@H](Cc2c[nH]c3ccccc23)NC(=O)[C@@H](Cc2c[nH]c3ccccc23)NC(=O)[C@H](NC(=O)[C@H](CCCCN)NC(=O)[C@H](CCCCN)NC(=O)[C@H](CCCNC(=N)N)NC(=O)[C@@H](N)CCCNC(=N)N)CSSC[C@H](C(=O)O)NC(=O)[C@@H](Cc2ccccc2)NC1=O` [PSP VI A5, H-RRKKcwwftfifc-OH] (H-RRKK[dC][dW][dW][dF][dT][dF][dI][dF][dC]-OH; disulfide 5-13), the “% Inhibition” value in the assay with H1N1 A/PR/8/1934 turned out to be 60%.

As for `CC[C@@H](C)[C@H]1NC(=O)[C@@H](Cc2ccccc2)NC(=O)[C@@H]([C@H](C)O)NC(=O)[C@@H](Cc2ccccc2)NC(=O)[C@@H](Cc2c[nH]c3ccccc23)NC(=O)[C@H]2CCCN2C(=O)[C@H](NC(=O)[C@H](CCCCN)NC(=O)[C@H](CCCCN)NC(=O)[C@H](CCCNC(=N)N)NC(=O)[C@@H](N)CCCNC(=N)N)CSSC[C@H](C(=O)O)NC(=O)[C@@H](CC(N)=O)NC1=O` [PSP V A13, H-RRKKcpwftfinc-OH] (H-RRKK[dC][dP][dW][dF][dT][dF][dI][dN][dC]-OH; disulfide 5-13), the “% Inhibition” value in the assay with H1N1 A/PR/8/1934 is given as <20%.

`CC[C@@H](C)[C@H]1NC(=O)[C@@H](Cc2ccccc2)NC(=O)[C@@H]([C@H](C)O)NC(=O)[C@@H](Cc2ccccc2)NC(=O)[C@@H](Cc2c[nH]c3ccccc23)NC(=O)[C@@H](CC(C)C)NC(=O)[C@H](NC(=O)[C@H](CCCCN)NC(=O)[C@H](CCCCN)NC(=O)[C@H](CCCNC(=N)N)NC(=O)[C@@H](N)CCCNC(=N)N)CSSC[C@H](C(=O)O)NC(=O)[C@@H](CC(N)=O)NC1=O` [PSP V A10, H-RRKKclwftfinc-OH] (H-RRKK[dC][dL][dW][dF][dT][dF][dI][dN][dC]-OH; disulfide 5-13): in the assay on H1N1 A/PR/8/1934, the “% Inhibition” value amounted to 65%.

`CC[C@@H](C)[C@H]1NC(=O)[C@@H](Cc2ccccc2)NC(=O)[C@@H]([C@H](C)O)NC(=O)[C@@H](Cc2ccccc2)NC(=O)[C@@H](Cc2c[nH]c3ccccc23)NC(=O)[C@@H](CCC(=O)O)NC(=O)[C@H](NC(=O)[C@H](CCCCN)NC(=O)[C@H](CCCCN)NC(=O)[C@H](CCCNC(=N)N)NC(=O)[C@@H](N)CCCNC(=N)N)CSSC[C@H](C(=O)O)NC(=O)[C@@H](CC(N)=O)NC1=O` [PSP V A4, H-RRKKcewftfinc-OH] (H-RRKK[dC][dE][dW][dF][dT][dF][dI][dN][dC]-OH; disulfide 5-13): in the assay on H1N1 A/PR/8/1934, the “% Inhibition” value was determined as 27%.

As to `CC[C@@H](C)[C@H]1NC(=O)[C@@H](Cc2ccccc2)NC(=O)[C@@H]([C@H](C)O)NC(=O)[C@@H](Cc2ccccc2)NC(=O)[C@@H](Cc2c[nH]c3ccccc23)NC(=O)[C@@H](C(C)C)NC(=O)[C@H](NC(=O)[C@H](CCCCN)NC(=O)[C@H](CCCCN)NC(=O)[C@H](CCCNC(=N)N)NC(=O)[C@@H](N)CCCNC(=N)N)CSSC[C@H](C(=O)O)NC(=O)[C@@H](CC(N)=O)NC1=O` [PSP V A18, H-RRKKcvwftfinc-OH] (H-RRKK[dC][dV][dW][dF][dT][dF][dI][dN][dC]-OH; disulfide 5-13), the “% Inhibition” value in the assay with H1N1 A/PR/8/1934 was 81%.

On to `CC[C@@H](C)[C@H]1NC(=O)[C@@H](Cc2ccccc2)NC(=O)[C@@H]([C@H](C)O)NC(=O)[C@@H](Cc2ccccc2)NC(=O)[C@@H](Cc2c[nH]c3ccccc23)NC(=O)[C@@H](C)NC(=O)[C@H](NC(=O)[C@H](CCCCN)NC(=O)[C@H](CCCCN)NC(=O)[C@H](CCCNC(=N)N)NC(=O)[C@@H](N)CCCNC(=N)N)CSSC[C@H](C(=O)O)NC(=O)[C@@H](CC(N)=O)NC1=O` [PSP V A1, H-RRKKcawftfinc-OH] (H-RRKK[dC][dA][dW][dF][dT][dF][dI][dN][dC]-OH; disulfide 5-13), for which the “% Inhibition” value in the assay on H1N1 A/PR/8/1934 is <20%.

Consider `CC[C@@H](C)[C@H]1NC(=O)[C@@H](Cc2ccccc2)NC(=O)[C@@H]([C@H](C)O)NC(=O)[C@@H](Cc2ccccc2)NC(=O)[C@@H](Cc2c[nH]c3ccccc23)NC(=O)[C@@H](Cc2c[nH]c3ccccc23)NC(=O)[C@H](NC(=O)[C@H](CCCCN)NC(=O)[C@H](CCCCN)NC(=O)[C@H](CCCNC(=N)N)NC(=O)[C@@H](N)CCCNC(=N)N)CSSC[C@H](C(=O)O)NC(=O)[C@@H](CC(=O)O)NC1=O` [PSP VI A3, H-RRKKcwwftfidc-OH] (H-RRKK[dC][dW][dW][dF][dT][dF][dI][dD][dC]-OH; disulfide 5-13), for which, in the assay on H1N1 A/PR/8/1934, the “% Inhibition” value is listed as 66%.
